This is an account of results in ChEMBL document CHEMBL4627304, “DNA sequence-specific ligands. XVIII. Synthesis, physico-chemical properties; genetic, virological, and biochemical studies of fluorescent dimeric bisbenzimidazoles DBPA(n)” (Bioorg Med Chem, 2020).

In brackets after ≈: the same amount, converted by molar mass. Activity calls are given as the source filed them. The calls are words filed in the database; no cut-off is given here. Where only a bound is given, the exact number is not on record here.

The target of data set [1] is Human immunodeficiency virus type 1 integrase (Human immunodeficiency virus 1, UniProt Q7ZJM1). Nature of the data set: Inhibition of recombinant HIV1 integrase expressed in Escherichia coli Rosetta assessed as reduction in 3' end processing activity using [32P]-labelled U5B/U5A DNA as substrate measured after 2 hrs by polyacrylamide gel electrophoresis method.
Sequence of Human immunodeficiency virus type 1 integrase (Q7ZJM1 whole entry): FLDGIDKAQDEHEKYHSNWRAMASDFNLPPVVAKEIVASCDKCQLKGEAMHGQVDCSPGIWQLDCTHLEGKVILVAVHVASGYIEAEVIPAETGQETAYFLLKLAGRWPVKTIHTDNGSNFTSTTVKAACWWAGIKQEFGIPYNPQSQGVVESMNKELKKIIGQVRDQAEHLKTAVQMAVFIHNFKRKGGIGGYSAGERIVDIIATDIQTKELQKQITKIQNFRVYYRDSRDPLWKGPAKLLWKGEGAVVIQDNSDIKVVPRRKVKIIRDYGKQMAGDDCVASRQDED
The nature of data set [2]: Solubility of the compound in water. The data set is classed as physicochemical. The note with it: buffer.
Data set [3] relates to Aliivibrio fischeri. Nature of the data set: Binding affinity to Aliivibrio fischeri H-NS dependent PluxC promoter assessed as luminescence intensity measured after 3 hrs by bioluminescence assay relative to control.
The nature of data set [4]: Drug penetration in human HCT116 cells nucleus at 200 uM measured after 2 days by fluorescence microscopy. The data set is classed as ADME, subcellular. The note with it: hct-116, 48 h.
Data set [5] relates to Aliivibrio fischeri. In words: Binding affinity to Aliivibrio fischeri H-NS dependent Prf promoter assessed as luminescence intensity measured after 3 hrs by bioluminescence assay relative to control.
The nature of data set [6]: Selectivity index, ratio of CC50 for cytotoxicity against African green monkey Vero cells assessed as reduction in cell viability measured after 72 hrs by MTT assay to EC50 for antiviral activity against Herpes simplex virus 1 infected in African green monkey vero cells assessed as reduction in plaque formation treated 1 hr post viral infection. It counts as toxicity, cell-based. The note with it: read-out: Ratio CC50/EC50.

The subject of data set [7] is Aliivibrio logei. Nature of the data set: Binding affinity to Aliivibrio logei H-NS dependent Pr2 promoter assessed as luminescence intensity measured after 3 hrs by bioluminescence assay relative to control.
Data set [8] concerns Aliivibrio logei. Nature of the data set: Binding affinity to Aliivibrio logei H-NS dependent Pr1 promoter assessed as luminescence intensity measured after 3 hrs by bioluminescence assay relative to control.
The next data set has as its system MCF7. In words: Cytotoxicity against human MCF7 cells assessed as reduction in cell viability by MTT assay. The data set is classed as cell-based. On the technique in general: Tetrazolium assays rely on reduction of a dye to a coloured formazan, in cell work by metabolically active cells.
A short description of data set [9]: Selectivity index, ratio of CC50 for cytotoxicity against African green monkey Vero cells assessed as reduction in cell viability measured after 72 hrs by MTT assay to EC50 for antiviral activity against Herpes simplex virus 1 infected in African green monkey Vero cells assessed as reduction in plaque formation pretreated with compound for 1 hr followed by viral infection at 0.01 PFU/cells for 1 hr by plaque reduction assay. It counts as toxicity, cell-based. To be noted: read-out: Ratio CC50/EC50.

The next data set deals with HCT-116. Nature of the data set: Cytotoxicity against human HCT116 cells assessed as reduction in cell viability by MTT assay. It counts as cell-based.
The test system of the next data set is Human alphaherpesvirus 1. In words: Antiviral activity against Herpes simplex virus 1 infected in African green monkey vero cells assessed as reduction in plaque formation treated 1 hr post viral infection by plaque reduction assay. The data set is classed as functional, organism-based. To be noted: Human alphaherpesvirus 1, Vero. In general terms: In a plaque reduction assay, fewer plaques than in the control indicate reduced infectivity or spread.

A short description of data set [10]: Cytotoxicity against human NKE cells assessed as reduction in cell viability by MTT assay. The data set is classed as cell-based.
Data set [11] has as its system Calf thymus DNA. In words: Binding affinity to calf thymus DNA assessed as hyperchromic effect by UV-Vis spectroscopy. The data set is classed as nucleic-acid assay. The note with it: Bos taurus.
The test system of data set [12] is Calf thymus DNA. In words: Binding affinity to calf thymus DNA assessed as appearance of positive band by cholesteric liquid crystal dispersion-based circular dichroism method. The data set is classed as nucleic-acid assay. To be noted: Bos taurus.
The target of data set [13] is T1, Transcriptional activator protein LuxR (Aliivibrio fischeri) (UniProt P12746).
T1 sequence (whole entry): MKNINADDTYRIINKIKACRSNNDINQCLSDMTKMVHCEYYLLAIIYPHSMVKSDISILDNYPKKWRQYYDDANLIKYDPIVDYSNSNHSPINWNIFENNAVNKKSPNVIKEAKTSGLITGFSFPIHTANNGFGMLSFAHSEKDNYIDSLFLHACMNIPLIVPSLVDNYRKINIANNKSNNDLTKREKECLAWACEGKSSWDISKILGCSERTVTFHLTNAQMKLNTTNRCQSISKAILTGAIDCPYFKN
In words: Inhibition of Aliivibrio fischeri LuxR quorum sensing system expressed in Escherichia coli MG1655 pVFR1 harboring Prf promoter assessed as reduction in LuxR transcriptional activity by measuring Lux gene expression in presence of LuxR protein activator and presence of 10^-6 M AHL by bioluminescence assay relative to control.

Data set [14] relates to Calf thymus DNA. Nature of the data set: Binding affinity to calf thymus DNA by fluorescence spectra analysis. It counts as nucleic-acid assay. The note with it: Bos taurus.
For data set [15], the target named is T1, Transcriptional activator protein LuxR (Aliivibrio fischeri). Nature of the data set: Inhibition of Aliivibrio fischeri LuxR quorum sensing system expressed in Escherichia coli MG1655 pVFR1 harboring Prf promoter assessed as reduction in LuxR transcriptional activity by measuring Lux gene expression in presence of LuxR protein activator and absence of AHL by bioluminescence assay relative to control.

Data set [16] has the same target. In words: Inhibition of Aliivibrio fischeri LuxR quorum sensing system expressed in Escherichia coli MG1655 pVFR1 harboring Prf promoter assessed as reduction in LuxR transcriptional activity by measuring Lux gene expression in presence of LuxR protein activator and presence of 10^-7 M AHL by bioluminescence assay relative to control.
Data set [17] shares this target. Nature of the data set: Inhibition of Aliivibrio fischeri LuxR quorum sensing system expressed in Escherichia coli MG1655 pVFR1 harboring Prf promoter assessed as reduction in LuxR transcriptional activity by measuring Lux gene expression in presence of LuxR protein activator and presence of 10^-8 M AHL by bioluminescence assay relative to control.

In general, IC50 refers to the concentration that gives 50% inhibition. In general, EC50 refers to the concentration giving half of the maximal effect. As for `CN(C)CCCNC(=O)c1ccc2nc(-c3ccc4nc(CNC(=O)CN5CCN(CC(=O)NCc6nc7ccc(-c8nc9ccc(C(=O)NCCCN(C)C)cc9[nH]8)cc7[nH]6)CC5)[nH]c4c3)[nH]c2c1`, the half-inhibitory concentration (IC50) in [1] was 2100 nM; with MCF7, > 200 µM; in the data set with HCT-116, > 200 µM; in data set [10] it was > 200 µM. For the same compound, the solubility entry in data set [2] is “Soluble”. The Flu intensity is 38000 with Aliivibrio fischeri [3], 4100 with Aliivibrio fischeri [5], 18000 with Aliivibrio logei [7] and 1700 in the data set with Aliivibrio logei [8]. The Drug uptake result in [4] is listed as “Active”. The selectivity ratio at 72 h in data set [6] worked out at 34; in [9] it was 5750. In the data set with Human alphaherpesvirus 1, the EC50 came to 16.7 µg/mL (≈ 17.6 µM).
Turning to `CN1CCN(c2ccc3nc(-c4ccc5nc(CNC(=O)CN6CCN(CC(=O)NCc7nc8ccc(-c9nc%10ccc(N%11CCN(C)CC%11)cc%10[nH]9)cc8[nH]7)CC6)[nH]c5c4)[nH]c3c2)CC1`, the IC50 in [1] was > 15000 nM.
With `Nc1nc2c(ncn2COCCO)c(=O)[nH]1` [ACYCLOVIR], the selectivity ratio at 72 h turned out to be 916 in data set [6] and 86 in data set [9]. For the same compound, the EC50 with Human alphaherpesvirus 1 was 1.2 µg/mL (≈ 5.33 µM).
For the compound `CN1CCN(c2ccc3nc(-c4ccc5nc(CNC(=O)CCCN6CCN(CCCC(=O)NCc7nc8ccc(-c9nc%10ccc(N%11CCN(C)CC%11)cc%10[nH]9)cc8[nH]7)CC6)[nH]c5c4)[nH]c3c2)CC1`, in data set [1], the IC50 was determined as 9900 nM.
Turning to `CN(C)CCCNC(=O)c1ccc2nc(-c3ccc4nc(CNC(=O)CCCCN5CCN(CCCCC(=O)NCc6nc7ccc(-c8nc9ccc(C(=O)NCCCN(C)C)cc9[nH]8)cc7[nH]6)CC5)[nH]c4c3)[nH]c2c1`, the IC50 was 1100 nM in data set [1], > 500 µM in the data set with MCF7, > 500 µM in the data set with HCT-116 and > 500 µM in data set [10]. In addition, the solubility entry in data set [2] is given as “Soluble”. The Flu intensity came out at 3500 in the data set with Aliivibrio fischeri [3], 4300 with Aliivibrio fischeri [5], 1800 in the data set with Aliivibrio logei [7] and 1000 in the data set with Aliivibrio logei [8]. Further, the Drug uptake entry in data set [4] was “Active”. Moreover, in data set [6], the selectivity ratio at 72 h stood at 34. The result in the data set on Calf thymus DNA [11] and in the data set with Calf thymus DNA [12] was Active. Further, in the data set on Human alphaherpesvirus 1, the half-maximal effective concentration (EC50) turned out to be 31 µg/mL (≈ 30 µM).
As to `CN1CCN(c2ccc3nc(-c4ccc5nc(CNC(=O)CCCCN6CCN(CCCCC(=O)NCc7nc8ccc(-c9nc%10ccc(N%11CCN(C)CC%11)cc%10[nH]9)cc8[nH]7)CC6)[nH]c5c4)[nH]c3c2)CC1`, the concentration for half-maximal inhibition (IC50) in data set [1] was 3900 nM.
`CN(C)CCCNC(=O)c1ccc2nc(-c3ccc4nc(CN)[nH]c4c3)[nH]c2c1`: the selectivity ratio at 72 h in [6] was determined as 35; in data set [9] it was 11. Moreover, the concentration for a half-maximal effect (EC50) with Human alphaherpesvirus 1 is 27 µg/mL (≈ 69 µM).
On to `CN(C)CCCNC(=O)c1ccc2nc(-c3ccc4nc(CNC(=O)CCN5CCN(CCC(=O)NCc6nc7ccc(-c8nc9ccc(C(=O)NCCCN(C)C)cc9[nH]8)cc7[nH]6)CC5)[nH]c4c3)[nH]c2c1`, for which the IC50 is 2600 nM in data set [1], > 300 µM in the data set on MCF7, > 300 µM with HCT-116 and > 300 µM in [10]. Besides, the solubility result in [2] is listed as “Soluble”. For the same compound, the Flu intensity in the data set with Aliivibrio fischeri [3] was found to be 110000; in the data set with Aliivibrio fischeri [5], 122000; in the data set with Aliivibrio logei [7], 150000; in the data set with Aliivibrio logei [8], 210000. Also, in data set [4], the Drug uptake entry is reported as “Active”. Moreover, the selectivity ratio at 72 h is 18 in data set [6] and 703 in [9]. For the same compound, the fold change (FC) in [13] was found to be 8; in [15] it was 27; in data set [16], 3; in data set [17], 1. Moreover, the outcome in the data set with Calf thymus DNA [14], in the data set on Calf thymus DNA [11] and in the data set on Calf thymus DNA [12] was Active. Further, the half-maximal effective concentration (EC50) in the data set on Human alphaherpesvirus 1 stood at 30 µg/mL (≈ 30.7 µM).
`CN(C)CCCNC(=O)c1ccc2nc(-c3ccc4nc(CNC(=O)CCCN5CCN(CCCC(=O)NCc6nc7ccc(-c8nc9ccc(C(=O)NCCCN(C)C)cc9[nH]8)cc7[nH]6)CC5)[nH]c4c3)[nH]c2c1`: the 50% inhibitory concentration (IC50) was 1800 nM in data set [1], > 500 µM in the data set on MCF7, > 500 µM in the data set with HCT-116 and > 500 µM in [10]. Further, the solubility entry in [2] is reported as “Soluble”. In addition, the Flu intensity in the data set with Aliivibrio fischeri [3] is 17000; in the data set with Aliivibrio fischeri [5] it was 4400; with Aliivibrio logei [7] it was 50000; with Aliivibrio logei [8], 3300. In [4], the Drug uptake result is “Active”. For the same compound, the selectivity ratio at 72 h was 70 in data set [6] and 95 in data set [9]. In addition, the result in the data set on Calf thymus DNA [14] was Active. The EC50 in the data set with Human alphaherpesvirus 1 stood at 15 µg/mL (≈ 14.9 µM).
As for `CN1CCN(c2ccc3nc(-c4ccc5nc(CNC(=O)CCN6CCN(CCC(=O)NCc7nc8ccc(-c9nc%10ccc(N%11CCN(C)CC%11)cc%10[nH]9)cc8[nH]7)CC6)[nH]c5c4)[nH]c3c2)CC1`, in data set [1], the IC50 is 7000 nM.
